Data: patent US20090227619A1, “Harmine derivatives, intermediates used in their preparations, preparation processes and use therefo” (priority 2003, published 2009)
pIC50: −log10 of the molar value. Where two headings read alike, the source gives them in different places.

Tests used:
Kunming mice = settings: for Death rate: single i.p.
Bel-7402 = assay: In vitro cytotoxicity, IC50 by MTT method, Bel-7402; format: cell-based; settings: Homo sapiens, Bel-7402; Bel7402 cell strain; read-out: IC50 Bel7402
Outline: (§1)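 MTT viability, 48 h exposure: cells 10^5/ml in RPMI1640 + 10% FBS, 37 °C/5% CO2; MTT 4 h, DMSO solubilisation, A490.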

HepG2 = assay: In vitro cytotoxicity, IC50 by MTT method, HepG2; format: cell-based, human; settings: Homo sapiens; HepG2 cell strain; read-out: IC50 HepG2
Outline: as §1

CT-DNA = assay: DNA thermal denaturation, determination of ΔTm; format: binding; settings: 20 uM compound, Tm of CT-DNA alone 61° C.
Method: Experiments were carried out in PE buffer (1 mM Na2HPO4, 0.1 mM EDTA, pH 7.6) in a thermostatically controlled cell hold, and the quartz cuvette (1 cm path length) was heated by circulating water at a heating rate of 0.5° C./min from 25 to 95° C. Amsacrine and Doxorubicin Hydrochloride were used as standards. In all cases, the concentration of CT-DNA was 15 ug/ml. The ‘melting’ temperature Tm was taken as the mid-point of the hyperchromic transition.
ΔTm=Tm^drug-DNA complex−Tm^DNA alone
The ΔTm of each compound was calculated, Experiments were repeated three times, and an average value was calculated.

BGC-823 = assay: In vitro cytotoxicity, IC50 by MTT method, BGC-823; format: cell-based; settings: Homo sapiens, BGC-823; BGC823 cell strain; read-out: IC50 BGC823
Outline: as §1

NIH3T3 = assay: In vitro cytotoxicity, IC50 by MTT method, NIH3T3; format: cell-based; settings: Mus musculus; NIH3T3 cell strain; read-out: IC50 NIH3T3
Outline: as §1

Lewis lung cancer = settings: Lewis lung cancer; for Body weight of the animals, end, First time / Body weight of the animals, end, Second time: ip × 10qd; for Inhibition rate (%) Lewis cancer: comparison table 43, in vivo;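 for all read-outs here: mice implanted subcutaneously in the axilla with Lewis lung tumor cells, treated starting the following day, killed roughly three weeks after implantation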
Description: (§2) There was one group of 8 to 10 mice C57BL/6 and Kunming mice for the anti-tumor tests and two groups of mice for negative control.
(§3) (3) Sources of tumors: Lewis lung cancer cells and S180 sarcoma in mice, which were sub-cultured and maintained by Pharmacological Center of Shanghai Pharmaceutical Industrial Research Institute.
(§4) All samples were weighed and added a small amount of Tween-80 to facilitate dissolution during the experiment, and then 0.5% CMC-Na solution was gradually added to achieve the desired concentration. The volume for experiment was 0.5 ml/20 g mouse.
(§5) The medicaments were intraperitoneally administered once a day continuously for 10 days.
(§6) For the negative control group, a vehicle of the same volume was intraperitoneally administered once a day continuously for 10 days. For the positive control group, CTX was administered in the dosage of 30 mg/kg once a day continuously for 7 days.
(§7) In vivo anti-tumor subcutaneous vaccination in the axilla was employed. Wildly grown tumor source was taken under sterile conditions to form a cell suspension of about 1×10^7 ml by homogenization method. For a corresponding mouse host, the suspension was injected in the axilla in an amount of 0.2 ml/mouse. The next day, the medicaments were administered according to the design of the tests. About three weeks later, all the groups of animals were executed. The tumors were taken from the animals and weighed. The inhibition rate of tumors was calculated according to the following formula:
(§8) T: average tumor weight of treated group; C: average tumor weight of negative control group.

S180 sarcoma = settings: S180 sarcoma; for Body weight of the animals, beginning, First time / Body weight of the animals, end, First time / Inhibition rate, First time / Weight of the tumor X ± SD, First time / Body weight of the animals, beginning, Second time / Body weight of the animals, end, Second time / Inhibition rate, Second time: ip × 10qd; for Inhibition rate (%) S180 sarcomata: comparison table 43, in vivo
Description: as §2, §3, §4, §5, §6, §7, §8

PLA-801 = assay: In vitro cytotoxicity, IC50 by MTT method, PLA-801; format: cell-based; settings: PLA-801 cell strain; read-out: IC50 PLA-801
Outline: as §1

Hela = assay: In vitro cytotoxicity, IC50 by MTT method, Hela; format: cell-based; settings: Homo sapiens; Hela cell strain; read-out: IC50 Hela
Outline: as §1

Lovo = assay: In vitro cytotoxicity, IC50 by MTT method, Lovo; format: cell-based; settings: Homo sapiens; Lovo cell strain; read-out: IC50 Lovo
Outline: as §1

in vivo = settings: both, Kunming, mouse, ip
[1] = 50% male 50% female mice, 240 mg/kg
[2] = 50% male 50% female mice, 300 mg/kg
[3] = CT-DNA 15 ug/ml, PE buffer pH 7.6
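Throughout, for Death rate: acute toxicity in Kunming mice grouped by sex, one intraperitoneal dose at five graded levels in Tween-80 plus 0.5% CMC-Na, deaths monitored over two weeks.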
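Throughout, for LD50: acute toxicity in Kunming mice grouped by sex, one intraperitoneal dose at five graded levels in Tween-80 plus 0.5% CMC-Na, deaths monitored over two weeks.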
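Throughout, for MTD: acute toxicity in Kunming mice grouped by sex, one intraperitoneal dose at five graded levels in Tween-80 plus 0.5% CMC-Na, deaths monitored over two weeks.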
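Throughout, for Sex: acute toxicity in Kunming mice grouped by sex, one intraperitoneal dose at five graded levels in Tween-80 plus 0.5% CMC-Na, deaths monitored over two weeks.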

SMILES: OCc1cc2c3ccccc3n(Cc3ccccc3)c2cn1 [Compound 42, 9-benzyl-3-hydroxymethyl-β-carboline]
- Death rate (Kunming mice; [1]): 50
- Death rate (Kunming mice; [2]): 80
- Death rate (Kunming mice; female mice, 240 mg/kg): 60
- Death rate (Kunming mice; female mice, 300 mg/kg): 80
- Death rate (Kunming mice; male mice, 240 mg/kg): 40
- Death rate (Kunming mice; male mice, 300 mg/kg): 80
- LD50 (Kunming mice; mouse, in vivo, ip): 214 to 286 mg/kg
- pIC50 (Bel-7402): 3.96
- pIC50 (HepG2): 4.05
- ΔTm (CT-DNA; [3]): −0.3 °C
- ΔTm (CT-DNA; CT-DNA thermal denaturation): −0.3 °C
- pIC50 (BGC-823): 3.96
- pIC50 (NIH3T3): 4.05
- Body weight of the animals, end, First time (Lewis lung cancer; Dosage 50 (mg/ml)): 24.7 g
- Body weight of the animals, end, Second time (Lewis lung cancer; Dosage 50 (mg/ml)): 24.7 g
- Body weight of the animals, beginning, First time (Lewis lung cancer; Dosage 50, ip × 10qd): 20.0 g
- Inhibition rate, First time (Lewis lung cancer; Dosage 50, ip × 10qd): 22.22%
- Weight of the tumor X ± SD, First time (Lewis lung cancer; Dosage 50, ip × 10qd): 2.14 ± 0.26 g
- Body weight of the animals, beginning, Second time (Lewis lung cancer; Dosage 50, ip × 10qd): 19.1 g
- Inhibition rate, Second time (Lewis lung cancer; Dosage 50, ip × 10qd): 26.96%
- Weight of the tumor X ± SD, Second time (Lewis lung cancer; Dosage 50, ip × 10qd): 1.89 ± 0.14 g
- Body weight of the animals, end, First time (Lewis lung cancer; Dosage 100 (mg/ml)): 25.1 g
- Body weight of the animals, end, Second time (Lewis lung cancer; Dosage 100 (mg/ml)): 25.1 g
- Body weight of the animals, beginning, First time (Lewis lung cancer; Dosage 100, ip × 10qd): 20.3 g
- Inhibition rate, First time (Lewis lung cancer; Dosage 100, ip × 10qd): 33.33%
- Weight of the tumor X ± SD, First time (Lewis lung cancer; Dosage 100, ip × 10qd): 1.62 ± 0.12 g
- Body weight of the animals, beginning, Second time (Lewis lung cancer; Dosage 100, ip × 10qd): 18.9 g
- Inhibition rate, Second time (Lewis lung cancer; Dosage 100, ip × 10qd): 34.47%
- Weight of the tumor X ± SD, Second time (Lewis lung cancer; Dosage 100, ip × 10qd): 1.92 ± 0.26 g
- Inhibition rate (%) Lewis cancer (Lewis lung cancer): 34.47%
- Body weight of the animals, beginning, First time (S180 sarcoma; Dosage 50 (mg/ml)): 19.5 g
- Body weight of the animals, end, First time (S180 sarcoma; Dosage 50 (mg/ml)): 24.7 g
- Inhibition rate, First time (S180 sarcoma; Dosage 50 (mg/ml)): 19.10%
- Weight of the tumor X ± SD, First time (S180 sarcoma; Dosage 50 (mg/ml)): 2.16 ± 0.38 g
- Body weight of the animals, beginning, Second time (S180 sarcoma; Dosage 50 (mg/ml)): 18.4 g
- Body weight of the animals, end, Second time (S180 sarcoma; Dosage 50 (mg/ml)): 25.6 g
- Inhibition rate, Second time (S180 sarcoma; Dosage 50 (mg/ml)): 20.74%
- Weight of the tumor X ± SD, Second time (S180 sarcoma; Dosage 50, ip × 10qd): 2.14 ± 0.23 g
- Body weight of the animals, beginning, First time (S180 sarcoma; Dosage 100 (mg/ml)): 19.2 g
- Body weight of the animals, end, First time (S180 sarcoma; Dosage 100 (mg/ml)): 24.3 g
- Inhibition rate, First time (S180 sarcoma; Dosage 100 (mg/ml)): 28.09%
- Weight of the tumor X ± SD, First time (S180 sarcoma; Dosage 100 (mg/ml)): 1.92 ± 0.25 g
- Body weight of the animals, beginning, Second time (S180 sarcoma; Dosage 100 (mg/ml)): 18.9 g
- Body weight of the animals, end, Second time (S180 sarcoma; Dosage 100 (mg/ml)): 25.1 g
- Inhibition rate, Second time (S180 sarcoma; Dosage 100 (mg/ml)): 25.15%
- Weight of the tumor X ± SD, Second time (S180 sarcoma; Dosage 100, ip × 10qd): 2.02 ± 0.36 g
- Inhibition rate (%) S180 sarcomata (S180 sarcoma): 28.09%
- pIC50 (PLA-801): 3.80
- pIC50 (Hela): 3.92
- pIC50 (Lovo): 4.00
- LD50 at 2 weeks (in vivo): 247 mg/kg

SMILES: c1ccc(Cn2c3ccccc3c3ccncc32)cc1 [Compound 84, 9-Benzyl-β-carboline]
- Death rate (Kunming mice; [1]): 0
- Death rate (Kunming mice; [2]): 30
- Sex (Kunming mice; both, Kunming, mouse, in vivo, ip, 2 weeks): 240
- Death rate (Kunming mice; female mice, 240 mg/kg): 0
- Death rate (Kunming mice; female mice, 300 mg/kg): 40
- Death rate (Kunming mice; male mice, 240 mg/kg): 0
- Death rate (Kunming mice; male mice, 300 mg/kg): 20
- pIC50 (Bel-7402): 4.10
- pIC50 (HepG2): 3.96
- ΔTm (CT-DNA; [3]): 1.5 °C
- ΔTm (CT-DNA; CT-DNA thermal denaturation): 1.5 °C
- pIC50 (BGC-823): 4.15
- pIC50 (NIH3T3): 3.96
- Body weight of the animals, end, First time (Lewis lung cancer; Dosage 50 (mg/ml)): 24.1 g
- Body weight of the animals, end, Second time (Lewis lung cancer; Dosage 50 (mg/ml)): 25.2 g
- Body weight of the animals, beginning, First time (Lewis lung cancer; Dosage 50, ip × 10qd): 19.0 g
- Inhibition rate, First time (Lewis lung cancer; Dosage 50, ip × 10qd): 27.09%
- Weight of the tumor X ± SD, First time (Lewis lung cancer; Dosage 50, ip × 10qd): 1.83 ± 0.11 g
- Body weight of the animals, beginning, Second time (Lewis lung cancer; Dosage 50, ip × 10qd): 19.7 g
- Inhibition rate, Second time (Lewis lung cancer; Dosage 50, ip × 10qd): 30.93%
- Weight of the tumor X ± SD, Second time (Lewis lung cancer; Dosage 50, ip × 10qd): 1.63 ± 0.16 g
- Body weight of the animals, end, First time (Lewis lung cancer; Dosage 100 (mg/ml)): 24.2 g
- Body weight of the animals, end, Second time (Lewis lung cancer; Dosage 100 (mg/ml)): 24.7 g
- Body weight of the animals, beginning, First time (Lewis lung cancer; Dosage 100, ip × 10qd): 18.5 g
- Inhibition rate, First time (Lewis lung cancer; Dosage 100, ip × 10qd): 35.06%
- Weight of the tumor X ± SD, First time (Lewis lung cancer; Dosage 100, ip × 10qd): 1.63 ± 0.11 g
- Body weight of the animals, beginning, Second time (Lewis lung cancer; Dosage 100, ip × 10qd): 19.4 g
- Inhibition rate, Second time (Lewis lung cancer; Dosage 100, ip × 10qd): 37.29%
- Weight of the tumor X ± SD, Second time (Lewis lung cancer; Dosage 100, ip × 10qd): 1.48 ± 0.15 g
- Inhibition rate (%) Lewis cancer (Lewis lung cancer): 37.29%
- Body weight of the animals, beginning, First time (S180 sarcoma; Dosage 50 (mg/ml)): 19.6 g
- Body weight of the animals, end, First time (S180 sarcoma; Dosage 50 (mg/ml)): 26.8 g
- Inhibition rate, First time (S180 sarcoma; Dosage 50 (mg/ml)): 29.47%
- Weight of the tumor X ± SD, First time (S180 sarcoma; Dosage 50 (mg/ml)): 2.01 ± 0.24 g
- Body weight of the animals, beginning, Second time (S180 sarcoma; Dosage 50 (mg/ml)): 20.4 g
- Body weight of the animals, end, Second time (S180 sarcoma; Dosage 50 (mg/ml)): 25.4 g
- Inhibition rate, Second time (S180 sarcoma; Dosage 50 (mg/ml)): 31.23%
- Weight of the tumor X ± SD, Second time (S180 sarcoma; Dosage 50, ip × 10qd): 1.96 ± 0.16 g
- Body weight of the animals, beginning, First time (S180 sarcoma; Dosage 100 (mg/ml)): 19.7 g
- Body weight of the animals, end, First time (S180 sarcoma; Dosage 100 (mg/ml)): 26.4 g
- Inhibition rate, First time (S180 sarcoma; Dosage 100 (mg/ml)): 37.19%
- Weight of the tumor X ± SD, First time (S180 sarcoma; Dosage 100 (mg/ml)): 1.79 ± 0.27 g
- Body weight of the animals, beginning, Second time (S180 sarcoma; Dosage 100 (mg/ml)): 20.2 g
- Body weight of the animals, end, Second time (S180 sarcoma; Dosage 100 (mg/ml)): 25.0 g
- Inhibition rate, Second time (S180 sarcoma; Dosage 100 (mg/ml)): 37.19%
- Weight of the tumor X ± SD, Second time (S180 sarcoma; Dosage 100, ip × 10qd): 1.79 ± 0.16 g
- Inhibition rate (%) S180 sarcomata (S180 sarcoma): 37.19%
- pIC50 (PLA-801): 3.92
- pIC50 (Hela): 4.30
- pIC50 (Lovo): 3.92
- MTD at 2 weeks (in vivo): 240 mg/kg
